Results reported in patent publication US6737383B1, “Herbicidal oxadiazolidines” (priority 1999, dated 2004).

Tests used:
[1] = tested on: bedstraw; experiment: Test B pre/postemergence bedstraw; format: in vivo, Galium aparine
Procedure, shortened: (§1)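 Herbicidal effect was estimated by eye on a ten-point control scale after plants spent twelve to sixteen days in a greenhouse following soil or foliar treatment. Foliar sprays targeted plants at one to four leaves; all doses were formulated in a non-phytotoxic solvent with surfactant.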

[2] = tested on: blackgrass; experiment: Test B pre/postemergence blackgrass; format: in vivo, Alopecurus myosuroides
Procedure, shortened: as §1

[3] = tested on: surinam grass; experiment: Test B pre/postemergence surinam grass; format: in vivo, Brachiaria decumbens
Procedure, shortened: as §1

[4] = tested on: cocklebur; experiment: Test B pre/postemergence cocklebur; format: in vivo, Xanthium strumarium
Procedure, shortened: as §1

[5] = tested on: corn; experiment: Test B pre/postemergence corn; format: in vivo, Zea mays
Procedure, shortened: as §1

[6] = tested on: crabgrass; experiment: Test B pre/postemergence crabgrass; format: in vivo, Digitaria sanguinalis
Procedure, shortened: as §1

[7] = tested on: giant foxtail; experiment: Test B pre/postemergence giant foxtail; format: in vivo, Setaria faberii
Procedure, shortened: as §1

[8] = tested on: morningglory; experiment: Test B pre/postemergence morningglory; format: in vivo, Ipomoea hederacea
Procedure, shortened: as §1

[9] = tested on: pigweed; experiment: Test B pre/postemergence pigweed; format: in vivo, Amaranthus retroflexus
Procedure, shortened: as §1

[10] = tested on: rape; experiment: Test B pre/postemergence rape; format: in vivo, Brassica napus
Procedure, shortened: as §1

[11] = tested on: soybean; experiment: Test B pre/postemergence soybean; format: in vivo, Glycine max
Procedure, shortened: as §1

[12] = tested on: sugar beet; experiment: Test B pre/postemergence sugar beet; format: in vivo, Beta vulgaris
Procedure, shortened: as §1

[13] = tested on: velvetleaf; experiment: Test B pre/postemergence velvetleaf; format: in vivo, Abutilon theophrasti
Procedure, shortened: as §1

[14] = tested on: wheat; experiment: Test B pre/postemergence wheat; format: in vivo, Triticum aestivum
Procedure, shortened: as §1

[15] = tested on: wild oat; experiment: Test B pre/postemergence wild oat; format: in vivo, Avena fatua
Procedure, shortened: as §1

[16] = tested on: purple nutsedge; experiment: Test B pre/postemergence purple nutsedge; format: in vivo, Cyperus rotundus
Procedure, shortened: as §1

[17] = tested on: rice; experiment: Test B flood test rice; format: in vivo, Oryza sativa
Procedure, shortened: (§2)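 Each value is a visual injury score relative to controls, with 10 meaning complete control and 0 no effect. Evaluation took place twelve to sixteen days after the 2-leaf-stage plants were treated and kept in the greenhouse.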

[18] = tested on: smallflower flatsedge; experiment: Test B flood test smallflower flatsedge; format: in vivo, Cyperus difformis
Procedure, shortened: as §2

[19] = tested on: duck salad; experiment: Test B flood test duck salad; format: in vivo, Heteranthera limosa
Procedure, shortened: as §2

[20] = tested on: bamyardgrass; experiment: Test B flood test barnyardgrass; format: in vivo, Echinochloa crus-galli
Procedure, shortened: as §2

[21] = Preemergence, Rate 62 g/ha, scale of 0 to 10 where 0 is no effect and 10 is complete control
[22] = Preemergence, Rate 250 g/ha, scale of 0 to 10 where 0 is no effect and 10 is complete control
[23] = Preemergence, Rate 500 g/ha, scale of 0 to 10 where 0 is no effect and 10 is complete control
[24] = Rate 62 g/ha, Postemergence, scale of 0 to 10 where 0 is no effect and 10 is complete control
[25] = Rate 125 g/ha, Postemergence, scale 0 to 10
[26] = Rate 125 g/ha, Preemergence, scale of 0 to 10 where 0 is no effect and 10 is complete control
[27] = Rate 500 g/ha, Postemergence, scale 0 to 10, 0 no effect, 10 complete control
[28] = Rate 62 g/ha, headed Pre-emergence (flood test species), scale 0 to 10 (0 no effect, 10 complete control)
[29] = Rate 125 g/ha, Pre-emergence, flood test species, scale 0 to 10 where 0 is no effect and 10 is complete control
[30] = Rate 250 g/ha, Pre-emergence, flood-test species, scale 0 to 10, 0 is no effect, 10 is complete control
[31] = Rate 500 g/ha, Pre-emergence, flood test species, scale 0 to 10 (0 no effect, 10 complete control)

Compound: CCCCCC#CCn1c(=O)on(C(=O)N(c2ccc(F)cc2)C(C)C)c1=O [Compound 254]
- Bedstraw plant response rating [1, 21]: 0
- Bedstraw plant response rating [1, 22]: 0
- Plant response rating, Bedstraw [1, 23]: 0
- Bedstraw plant response rating [1, 24]: 0
- Bedstraw plant response rating [1, 25]: 4
- Bedstraw plant response rating [1, 26]: 0
- Plant response rating (0 to 10; 0 is no effect, 10 is complete control), Bedstraw ([1]; Rate 250 g/ha, Postemergence): 4
- Bedstraw plant response rating [1, 27]: 4
- Blackgrass plant response rating [2, 21]: 0
- Blackgrass plant response rating [2, 22]: 0
- Plant response rating, Blackgrass [2, 23]: 4
- Blackgrass plant response rating [2, 24]: 0
- Blackgrass plant response rating [2, 25]: 0
- Blackgrass plant response rating [2, 26]: 0
- Plant response rating (0 to 10; 0 is no effect, 10 is complete control), Blackgrass ([2]; Rate 250 g/ha, Postemergence): 0
- Blackgrass plant response rating [2, 27]: 0
- B. signalgrass plant response rating [3, 21]: 0
- B. signalgrass plant response rating [3, 22]: 0
- Plant response rating, B. signalgrass [3, 23]: 0
- B. signalgrass plant response rating [3, 24]: 0
- B. signalgrass plant response rating ([3]; Rate 125 g/ha, Postemergence, scale 0 (no effect) to 10 (complete control)): 0
- B. signalgrass plant response rating [3, 26]: 0
- Plant response rating (0 to 10; 0 is no effect, 10 is complete control), B. signalgrass ([3]; Rate 250 g/ha, Postemergence): 0
- B. signalgrass plant response rating [3, 27]: 0
- Cocklebur plant response rating [4, 21]: 0
- Cocklebur plant response rating [4, 22]: 0
- Plant response rating, Cocklebur [4, 23]: 0
- Cocklebur plant response rating [4, 24]: 0
- Cocklebur plant response rating [4, 25]: 0
- Cocklebur plant response rating [4, 26]: 0
- Plant response rating (0 to 10; 0 is no effect, 10 is complete control), Cocklebur ([4]; Rate 250 g/ha, Postemergence): 0
- Cocklebur plant response rating [4, 27]: 0
- Corn plant response rating [5, 21]: 0
- Corn plant response rating [5, 22]: 0
- Plant response rating, Corn [5, 23]: 0
- Corn plant response rating [5, 24]: 0
- Corn plant response rating [5, 25]: 0
- Corn plant response rating [5, 26]: 0
- Plant response rating (0 to 10; 0 is no effect, 10 is complete control), Corn ([5]; Rate 250 g/ha, Postemergence): 0
- Corn plant response rating [5, 27]: 0
- Crabgrass plant response rating [6, 21]: 0
- Crabgrass plant response rating [6, 22]: 0
- Plant response rating, Crabgrass [6, 23]: 3
- Crabgrass plant response rating [6, 26]: 0
- Plant response rating (0 to 10; 0 is no effect, 10 is complete control), Crabgrass ([6]; Rate 250 g/ha, Postemergence): 0
- Crabgrass plant response rating [6, 27]: 0
- Giant foxtail plant response rating [7, 21]: 0
- Giant foxtail plant response rating [7, 22]: 6
- Plant response rating, Giant foxtail [7, 23]: 10
- Giant foxtail plant response rating [7, 26]: 3
- Plant response rating (0 to 10; 0 is no effect, 10 is complete control), Giant foxtail ([7]; Rate 250 g/ha, Postemergence): 0
- Giant foxtail plant response rating [7, 27]: 0
- Morningglory plant response rating [8, 21]: 0
- Morningglory plant response rating [8, 22]: 0
- Plant response rating, Morningglory [8, 23]: 0
- Morningglory plant response rating [8, 26]: 0
- Plant response rating (0 to 10; 0 is no effect, 10 is complete control), Morningglory ([8]; Rate 250 g/ha, Postemergence): 9
- Morningglory plant response rating [8, 27]: 9
- Redroot pigweed plant response rating [9, 21]: 0
- Redroot pigweed plant response rating [9, 22]: 0
- Plant response rating, Redroot pigweed [9, 23]: 0
- Redroot pigweed plant response rating [9, 26]: 0
- Plant response rating (0 to 10; 0 is no effect, 10 is complete control), Redroot pigweed ([9]; Rate 250 g/ha, Postemergence): 3
- Redroot pigweed plant response rating [9, 27]: 6
- Rape plant response rating [10, 21]: 0
- Rape plant response rating [10, 22]: 2
- Plant response rating, Rape [10, 23]: 6
- Rape plant response rating [10, 26]: 0
- Plant response rating (0 to 10; 0 is no effect, 10 is complete control), Rape ([10]; Rate 250 g/ha, Postemergence): 2
- Rape plant response rating [10, 27]: 2
- Soybean plant response rating [11, 21]: 0
- Soybean plant response rating [11, 22]: 0
- Plant response rating, Soybean [11, 23]: 0
- Soybean plant response rating [11, 26]: 0
- Soybean plant response rating [11, 27]: 2
- Sugarbeets plant response rating [12, 21]: 0
- Sugarbeets plant response rating [12, 22]: 2
- Plant response rating, Sugarbeets [12, 23]: 6
- Sugarbeets plant response rating [12, 26]: 2
- Sugarbeets plant response rating [12, 27]: 7
- Velvetleaf plant response rating [13, 21]: 0
- Velvetleaf plant response rating [13, 22]: 0
- Plant response rating, Velvetleaf [13, 23]: 0
- Velvetleaf plant response rating [13, 26]: 0
- Velvetleaf plant response rating [13, 27]: 2
- Wheat plant response rating [14, 21]: 0
- Wheat plant response rating [14, 22]: 0
- Plant response rating, Wheat [14, 23]: 0
- Wheat plant response rating [14, 26]: 0
- Wheat plant response rating [14, 27]: 0
- Wild oats plant response rating [15, 21]: 0
- Wild oats plant response rating [15, 22]: 0
- Plant response rating, Wild oats [15, 23]: 2
- Wild oats plant response rating [15, 26]: 0
- Wild oats plant response rating [15, 27]: 0
- Nutsedge plant response rating [16, 21]: 0
- Nutsedge plant response rating [16, 22]: 0
- Plant response rating, Nutsedge [16, 23]: 0
- Nutsedge plant response rating [16, 26]: 0
- Plant response rating (0 to 10; 0 is no effect, 10 is complete control), Nutsedge ([16]; Rate 250 g/ha, Postemergence): 0
- Nutsedge plant response rating [16, 27]: 0
- Rice plant response rating [17, 28]: 0
- Rice plant response rating [17, 29]: 0
- Rice plant response rating [17, 30]: 0
- Rice plant response rating [17, 31]: 0
- S. Flatsedge plant response rating [18, 28]: 0
- S. Flatsedge plant response rating [18, 29]: 0
- S. Flatsedge plant response rating [18, 30]: 0
- S. Flatsedge plant response rating [18, 31]: 0
- Ducksalad plant response rating [19, 28]: 0
- Ducksalad plant response rating [19, 29]: 0
- Ducksalad plant response rating [19, 30]: 0
- Ducksalad plant response rating [19, 31]: 0
- Barnyardgrass plant response rating [20, 28]: 0
- Barnyardgrass plant response rating [20, 29]: 0
- Barnyardgrass plant response rating [20, 30]: 0
- Barnyardgrass plant response rating [20, 31]: 0
